# Values quoted from earlier work as cited in patent publication US20250009900A1, “OXAZAPHOSPHORINE ANTIBODY DRUG CONJUGATES AND METHODS OF USE” (LA Life Products, LLC, priority 2023, published 2025).
# Conditions: combination with ipilimumab (anti-CTLA-4), in the clinic; cited from earlier work
smiles,measurement,value
Cn1c(COP(=O)(NCCBr)NCCBr)cnc1[N+](=O)[O-] [evofosfamide],good clinical activity (patients),15 of 22
